The values below come from ChEMBL document CHEMBL4602691, “Selective DYRK1A Inhibitor for the Treatment of Type 1 Diabetes: Discovery of 6-Azaindole Derivative GNF2133” (J Med Chem, 2020).

Series [1] is described as follows: Metabolic stability in rat liver microsomes assessed as intrinsic clearance at 1 uM incubated for 30 mins by LC-MS/MS analysis. Format: ADME, Microsome. The following applies: 0.5 h.
Series [2] in a line: Metabolic stability in human liver microsomes assessed as intrinsic clearance at 1 uM incubated for 30 mins by LC-MS/MS analysis. The format is ADME, Microsome. The following applies: 0.5 h.
Series [3] is described as follows: Metabolic stability in mouse liver microsomes assessed as intrinsic clearance at 1 uM incubated for 30 mins by LC-MS/MS analysis. Format: ADME, Microsome. The following applies: 0.5 h.
The nature of series [4]: Aqueous solubility of compound at pH 6.8. The format is physicochemical. The following applies: aqueous medium.
Series [5] can be described thus: Cmax in CD-1 mouse pancreas at 30 mg/kg, po. The format is ADME, organism-based. On the set-up: dose 30 mg/kg, route oral.
Series [6] is described as follows: AUC in CD-1 mouse at 30 mg/kg, po. The following applies: in vivo. The format is ADME, organism-based.
Series [7] can be described thus: Tmax in CD-1 mouse pancreas at 30 mg/kg, po. Format: ADME, organism-based.
A short description of series [8]: Clast in CD-1 mouse at 2 mg/kg, iv. The format is ADME, organism-based. The following applies: in vivo, read-out: Clast.
A short description of series [9]: Cmax in CD-1 mouse at 30 mg/kg, po. The following applies: in vivo. On the set-up: dose 30 mg/kg, route oral. The format is ADME, organism-based.
Series [10] can be described thus: Oral bioavailability in CD-1 mouse at 30 mg/kg. The format is ADME, organism-based. The following applies: in vivo.
Series [11] can be described thus: AUC in CD-1 mouse at 2 mg/kg, iv. Format: ADME, organism-based. The following applies: in vivo.
A short description of series [12]: Tmax in CD-1 mouse at 2 mg/kg, iv. The format is ADME, organism-based. The following applies: in vivo.
Series [13] can be described thus: Half life in CD-1 mouse pancreas at 30 mg/kg, po. The format is ADME, organism-based.
A short description of series [14]: Volume of distribution at steady state in CD-1 mouse at 2 mg/kg, iv. The format is ADME, organism-based. The following applies: in vivo, read-out: Vdss.
Series [15] in a line: Clast in CD-1 mouse at 30 mg/kg, po. The following applies: in vivo, read-out: Clast. Format: ADME, organism-based.
The nature of series [16]: Half life in CD-1 mouse at 30 mg/kg, po. The following applies: in vivo. Format: ADME, organism-based.
The nature of series [17]: Clast in CD-1 mouse pancreas at 30 mg/kg, po. The format is ADME, organism-based. The following applies: in vivo, read-out: Clast.
A short description of series [18]: Tmax in CD-1 mouse at 30 mg/kg, po. Format: ADME, organism-based. The following applies: in vivo.
Series [19] in a line: Half life in CD-1 mouse at 2 mg/kg, iv. The format is ADME, organism-based. The following applies: in vivo.
Series [20] is described as follows: Cmax in CD-1 mouse at 2 mg/kg, iv. Format: ADME, organism-based. On the set-up: dose 2 mg/kg, route intravenous. The following applies: in vivo.
Series [21] can be described thus: Clearance in CD-1 mouse at 2 mg/kg, iv. Format: ADME, organism-based. The following applies: in vivo.
The nature of series [22]: AUC in CD-1 mouse pancreas at 30 mg/kg, po. Format: ADME, organism-based.

As for `O=C(Nc1cc(-c2cn(-c3ccccc3)c3cnccc23)ccn1)NC1CC1`, the figures for the CLH in series [1], in series [2] and in series [3] were 60%, 21% and 70%, respectively.

For `Nc1cc(-c2cn(-c3ccccc3)c3cnccc23)ccn1`, the CLH turned out to be 86% in series [1], 87% in series [2] and 94% in [3].

For the molecule `c1ccc(-n2cc(-c3ccncc3)c3ccncc32)cc1`, the CLH in series [1] was found to be 90%; in [2], 92%; in [3], 97%.

As for `C[C@@H]1CN(C(=O)Nc2cc(-c3cn([C@H]4CC[C@@](C)(O)CC4)c4cnccc34)ccn2)C[C@H](C)O1`, the CLH in series [1] worked out at 18%; in series [2], 21%; in series [3] it was 23%. In series [4], this molecule gave a solubility above 175 µM.

`C[C@@H]1CN(C(=O)Nc2cc(-c3cn(C4CCOCC4)c4cnccc34)ccn2)C[C@H](C)O1`: the CLH in series [1] came to 18%; in [3], 23%.

As for `O=C(Nc1cc(-c2cn(C3CCOCC3)c3cnccc23)ccn1)N1CCOCC1`, the figures for the CLH in series [1], in series [2] and in series [3] were 25%, 21% and 23%, respectively.

In the case of `c1cc(-c2cn(C3CCOCC3)c3cnccc23)ccn1`, the results for the CLH in series [1] and in [3] were 83% and 91%, respectively.

With `CCN1CCN(C(=O)Nc2cc(-c3cn(C4CCOCC4)c4cnccc34)ccn2)CC1`, the CLH is given as 18% in [1], 28% in series [2] and 30% in series [3]. For the same molecule, the solubility in series [4] is above 175 µM.

Regarding `c1ccc(Cn2cc(-c3ccncc3)c3ccncc32)cc1`, the CLH in series [1] was 67%; in series [2], 83%; in series [3], 90%.

`CC1(Cn2cc(-c3ccncc3)c3ccncc32)COC1`: the CLH was 69% in series [1], 39% in series [2] and 90% in [3].

Turning to `O=C(Nc1cc(-c2cn(-c3ccccc3)c3cnccc23)ccn1)C1CC1`, the CLH is given as 50% in [1], 44% in [2] and 76% in [3].

As for `c1cc(-c2cn(CC3CC3)c3cnccc23)ccn1`, the results for the CLH in series [1], in [2] and in [3] were 87%, 87% and 97%, respectively.

`CCN1CCN(C(=O)Nc2cc(-c3cn(C4CCOCC4)c4cnccc34)ccn2)CC1.Cl`: the values for the Cmax in series [5], in [9] and in [20] were 13300 nM, 1680 nM and 1980 nM, respectively. For the same molecule, the results for the AUC in [6], in series [11] and in series [22] were 11 µM·h, 3.27 µM·h and 144 µM·h, respectively. The Tmax in series [7] is 3 h; in series [12] it was 1.8 min; in [18] it was 3 h. Also, the concentration in [8] is 36.6 nM; in [15] it was 19 nM; in series [17], 1320 nM. The molecule also came in with a bioavailability in series [10] of 22.3%. Moreover, the half-life in [13] was 6.6 h; in series [16], 3.4 h; in series [19] it was 6.6 h. Further, in series [14], the Vd came out at 11 L/kg. The clearance in series [21] stood at 23.5 mL/min/kg.

`CC(C)Cn1cc(-c2ccncc2)c2ccncc21`: the CLH amounted to 79% in [1], 83% in series [2] and 95% in [3].

Take `O=C(Nc1cc(-c2cn(C3CCOCC3)c3cnccc23)ccn1)NC1CC1`: the values for the CLH in [1] and in series [3] were 42% and 71%, respectively.

On to `CC1(C)CN(C(=O)Nc2cc(-c3cn(C4CCOCC4)c4cnccc34)ccn2)C1`, for which the CLH in [1] was determined as 45%; in series [2], 43%; in [3], 43%.
